# Patent US20230015532A1, “PHARMACEUTICAL COMPOSITION, FOR PREVENTING OR TREATING FIBROSIS, COMPRISING PHEOPHORBIDE COMPOUND AS ACTIVE INGREDIENT” (PAEAN BIOTECHNOLOGY INC., priority 2019, published 2023)
# Assays:
# [1] = test system: pulmonary fibrosis induced by bleomycin (BLM) in C57BL/6NCr10ri mice; assay: Bleomycin-induced pulmonary fibrosis model mice; assay type: in vivo; settings: oral once daily Day 1 to Day 21, 1.25-80 mg/kg
# Description: Mice were weighed and divided into total seven groups, and then administered intratracheally with sterile physiological saline in the vehicle control group and with BLM in the other groups than the vehicle control group on Day 1 to induce pulmonary fibrosis. Then, from Day 1 to Day 21, DMSO (sigma D2650-5X) devoid of the effective substance was administered to the vehicle control group and the negative control group (fibrosis control).
# In addition, T1 to T4 groups and the positive control group were orally administered with the effective substance (pheophorbide a) and nintedanib, respectively, once daily. […]
# Following the administration, the death and the moribund status were observed once daily, and general symptoms such as appearance and behavioral changes were observed twice daily. […] Body weight was measured 7 times in total (Day 1, 2, 4, 8, 11, 15 and 18) during the administration and once on the autopsy day.
# On Day 22, the animals were euthanized by isoflurane inhalation and subjected to autopsy. […] The organ weight ratio of the extracted lungs was calculated by using the following calculation formula. […]
# The results of the experiments were expressed by the mean and the standard deviation and statistically analyzed using Pristima System or Statistical Analysis System (SAS/STAT).
# [2] = test system: Smad protein activity in Balb/c3T3 cells; assay: Smad-binding luciferase reporter assay of TGF-β signaling; assay type: cell-based; settings: 0.06-5 μM together with 5 ng/ml TGF-β, 20 hours
# Description: A vector was prepared in which a gene obtained by repeating eight times the nucleotide sequence (5′-[…]-3′ SEQ ID NO: 1) to which the Smad gene can bind was linked to a gene encoding luciferase as a reporter gene. The above vector was transfected into Balb/c3T3 cells together with a vector in which the RSV promoter gene was linked to a gene encoding beta-galactosidase. After 6 hours, the negative control group was treated with nothing, the positive control group was treated with TGF-β at a concentration of 5 ng/ml, and the experimental groups were treated with pheophorbide a obtained in Preparation Example 2 at each concentration of 0.06 μM, 0.12 μM, 0.25 μM, 0.5 μM, 1 μM, and 5 μM, together with 5 ng/ml of TGF-β.
# The cells were then cultured in 5% CO2 incubator at 37° C. for 20 hours, and then luciferase analysis was performed.
# [3] = test system: collagen 1A in CCD8-Lu cells; assay: Comparison of anti-fibrotic activity by immunocytochemistry staining (Experimental Example 4.3); assay type: cell-based, human; settings: 2.5 μM and 5 μM; 6 hours after 5 ng/ml TGF-β; fluorescence intensity
# Description: A cell-based analysis experiment was performed to analyze the anti-fibrotic activity of pheophorbide a in comparison with nintedanib and pirfenidone, which were previously approved as a therapeutic agent for pulmonary fibrosis, using immunocytochemistry staining method. CCD8-Lu cells, which are human lung-derived fibroblasts, were cultured in the DMEM medium containing 10% FBS. About 2×10^4 cells were then inoculated into a 24 well plate and cultured for 24 hours, and subjected to the deficient condition in the DMEM medium from which FBS was removed for about 24 hours. After 24 hours, following the treatment with TGF-β at a concentration of 5 ng/ml, fibrosis of cells was induced for 6 hours. After 6 hours, the cells were treated with 2.5 μM or 5 μM of pheophorbide a, 1 μM of nintedanib, or 1 mM of pirfenidone. Immunohistochemistry analysis for each sample was performed as follows. First, the sample was washed twice with a PBS buffer, and then 4% formaldehyde was added to fix for 1 hour, and anti-collagen 1A was used as a primary antibody and Alexa Fluor 488 was used as a secondary antibody. The nuclei were stained using DAPI (4,6-diamidino-2-phenylindole) and the difference in the intensity of fluorescence was analyzed using a fluorescence microscope.
# [4] = test system: phosphorylated Smad3 and phosphorylated ERK in CCD8-Lu cells; assay: Western blotting of phosphorylated proteins of TGF-β signaling (Experimental Example 5); assay type: cell-based, human; settings: 5 μM, 6 hours after 5 ng/ml TGF-β
# Description: A cell-based assay experiment was performed using Western blotting assay to determine the effect of pheophorbide a on phosphorylation in the TGF-β signaling pathway. CCD8-Lu cells, which are human lung-derived fibroblasts, were cultured in the DMEM medium containing 10% FBS. About 2×10^5 cells were then inoculated into a 6 well plate, cultured for 24 hours, and subjected to the deficient condition in the DMEM medium from which FBS was removed for about 24 hours. 24 hours later, following the treatment with TGF-β at a concentration of 5 ng/ml, fibrosis of cells was induced for 6 hours. Then, the cells were treated with pheophorbide a obtained in Preparation Example 2 or the therapeutic agent for pulmonary fibrosis and further cultured for 18 hours. Then, the negative control group was treated with nothing, the positive control group was treated with TGF-β alone at a concentration of 5 ng/ml, and the experimental groups were treated with TGF-β at a concentration of 5 ng/ml and 6 hours later, with pheophorbide a at a concentration of 5 μM and nintedanib at a concentration of 1 μM, respectively. […] The separated supernatant was obtained and transferred to a new microtube and then the protein was quantified using a bicinchoninic acid assay (BCA assay) protein quantitative kit. […]
substance,measurement,setting,value
pheophorbide a,anti-fibrotic effect as compared with the negative control group,"[1]; BLM 1.8 mg/kg intratracheal, mice",anti-fibrotic effect
same,anti-fibrotic effect as compared with the positive control group (nintedanib),"[1]; nintedanib 60 mg/kg, BLM mice",significant anti-fibrotic effect
same,activity of Smad protein increased by TGF-β (luciferase),[2],decreased by pheophorbide a in a concentration-dependent manner
same,increased expression of collagen 1A induced by TGF-β,[3],remarkably inhibited
same,expression of phosphorylated Smad3 and phosphorylated ERK induced by TGF-β,[4],remarkably inhibited
